Laboratory results from US20030191096A1, “Method of hormonal therapy” (priority 2002, published 2003).

Test system: male accessory sex glands and tissues in sexually immature castrated male rats
Assay: Oral Hershberger Assay: weights of male accessory sex glands and tissues after ten days of oral gavage
Format: in vivo, rat
Settings: ten consecutive days
Description: Applicants performed a set of experiments to identify the potential for a compound to mimic endogenous sex hormones. An in vivo study was performed using a short-term screening assay to identify changes in weights of male accessory sex glands and tissues in sexually immature castrated male rats. The study preformed is known in the art as an “Oral Hershberger Assay”.
This study included forty-two sexually immature castrated male rats that were randomly assigned to seven different groups and assigned formulations of the test article, oxandrolone, positive control article, 17α-methyl testosterone, or the vehicle, aqueous 0.5% methylcellulose. These formulations were administered orally via gavage once daily for ten consecutive days at dosages of 0 (vehicle), 1, 3 and 10 mg/kg/day. The dosage volume was 0.5 mL/kg, adjusted daily for body weight changes and were given at approximately the same time each day.
Approximately 24 hours after the last dosage administration the rats were euthanized via carbon dioxide asphyxiation. The following tissues were excised trimmed and weighed: liver, paired adrenal glands, paired kidneys, ventral prostate, seminal vesicles together with the coagulating gland, levator ani and bulbocavemous muscles, glands penis and cowper's gland. These tissues were retained in neutral buffered 10% formalin to be used for any possible future evaluation.
The following table presents the percent changes from the control group value.

| SMILES | Cowpers Gland, percent changes from the control group value (1 mg/kg/day orally via gavage) [%] | Glands Penis, percent changes from the control group value (1 mg/kg/day orally via gavage) [%] | Levator Ani and Bulbocavernous, percent changes from the control group value (1 mg/kg/day orally via gavage) [%] | Prostate (Fixed), percent changes from the control group value (1 mg/kg/day orally via gavage) [%] | Prostate, percent changes from the control group value (1 mg/kg/day orally via gavage) [%] | Seminal Vesicles with Fluid, percent changes from the control group value (1 mg/kg/day orally via gavage) [%] | Cowpers Gland, percent changes from the control group value (3 mg/kg/day orally via gavage) [%] | Glands Penis, percent changes from the control group value (3 mg/kg/day orally via gavage) [%] | Levator Ani and Bulbocavernous, percent changes from the control group value (3 mg/kg/day orally via gavage) [%] | Prostate (Fixed), percent changes from the control group value (3 mg/kg/day orally via gavage) [%] | Prostate, percent changes from the control group value (3 mg/kg/day orally via gavage) [%] | Seminal Vesicles with Fluid, percent changes from the control group value (3 mg/kg/day orally via gavage) [%] | Cowpers Gland, percent changes from the control group value (10 mg/kg/day orally via gavage) [%] | Glands Penis, percent changes from the control group value (10 mg/kg/day orally via gavage) [%] | Levator Ani and Bulbocavernous, percent changes from the control group value (10 mg/kg/day orally via gavage) [%] | Prostate (Fixed), percent changes from the control group value (10 mg/kg/day orally via gavage) [%] | Prostate, percent changes from the control group value (10 mg/kg/day orally via gavage) [%] | Seminal Vesicles with Fluid, percent changes from the control group value (10 mg/kg/day orally via gavage) [%] |
| --- | --- | --- | --- | --- | --- | --- | --- | --- | --- | --- | --- | --- | --- | --- | --- | --- | --- | --- |
| C[C@]12CCC(=O)C=C1CC[C@@H]1[C@@H]2CC[C@@]2(C)[C@H]1CC[C@]2(C)O [Meth-Test, 17α-methyl testosterone] | 88.7 | 127.9 | 111.0 | 101.9 | 97.0 | 89.6 | 179.0 | 102.6 | 114.2 | 119.0 | 109.1 | 118.0 | 237.1 | 122.9 | 139.7 | 234.0 | 222.5 | 194.4 |
| C[C@]12COC(=O)C[C@@H]1CC[C@@H]1[C@@H]2CC[C@@]2(C)[C@H]1CC[C@]2(C)O [Oxandro, oxandrolone] | 137.1 | 104.1 | 107.3 | 127.6 | 135.3 | 100.7 | 159.7 | 107.4 | 148.2 | 149.9 | 139.4 | 120.1 | 206.5 | 109.6 | 192.4 | 192.2 | 166.3 | 171.0 |
